Data reported in US20240299384A1, “METHODS FOR TREATING PULMONARY HYPERTENSION IN PATIENTS WITH LEFT VENTRICULAR ASSIST DEVICE IMPLANTATION” (ACTELION PHARMACEUTICALS LTD, priority 2021, published 2024).

Legend:
[1] = system: patients with PH post-LVAD implantation; assay: Phase 2 placebo-controlled study in PH post-LVAD implantation: right heart catheterization hemodynamics (PVR by thermodilution); type: in vivo, human
Experimental: (§1) This is a double-blind, placebo-controlled, multicenter, parallel-group Phase 2 study assessing the efficacy and safety of macitentan in PH post-LVAD implantation. Approximately 57 adult patients with PH post-LVAD implantation were randomized (1:1) to receive either macitentan 10 mg, or matching placebo, once daily orally.
After implantation of the LVAD, patients meet baseline hemodynamic criteria of PH via RHC during the last measurement prior to the first dose of drug, defined as mPAP≥25 mmHg at rest and PAWP≤18 mmHg and PVR>3 WU. Patients are randomized within 90 days of surgical implantation of LVAD and within 14 days of Baseline RHC.
• (i) Primary efficacy endpoint: The primary efficacy endpoint is PVR ratio of Week 12 to Baseline. PVR is obtained by the thermodilution method. See, Table 7 for the FAS, Table 8 for the ES, and Table 9 for the PPS.
An RHC conducted prior to signing the Informed Consent may be accepted as the Baseline RHC. Baseline RHC is performed by the thermodilution method, after LVAD implantation and prior to first dose of treatment (which occurs within 90 days post-surgical implantation of LVAD). Randomization (Visit 2) is within 14 days of Baseline RHC. Patients are excluded if they were treated with ERAs, PDE5 inhibitors, i.v., s.c., or oral prostanoids, or guanylate cyclase stimulators within 7 days prior to Baseline RHC or treatment initiation. Patients are excluded if they were treated with inhaled prostanoids (e.g., iloprost, epoprostenol), nitric oxide or i.v. inotropes or vasopressors within 24 h prior to Baseline RHC or treatment initiation. LVAD pump speed/flow rate may be adjusted during the treatment period and during the Baseline RHC.
An RHC is repeated at Week 12, or within 7 days of permanent discontinuation of treatment if prior to Week 12. The Week 12 RHC is performed by the thermodilution method, and not within 24 h of treatment with i.v. inotropes or vasopressors.
The following variables also are measured: pulse rate, PAWP, mRAP, systolic/diastolic/mean PAP, CO, and SVO2 and non-invasive mean, SBP and DBP if available. PVR is calculated. CO measurements, and PVR calculations, during both Baseline and Week 12 RHC is obtained via the thermodilution method. All primary end point calculations is based on thermodilution method-calculated PVR.
The following hemodynamic variables are calculated: PVR, TPR, and CI.
The primary efficacy variable is PVR ratio of Week 12 to Baseline. PVR [WU] is calculated as (mPAP-PAWP)/CO.
The ratio of Week 12 to Baseline PVR is log-transformed (base e) and analyzed using an analysis of covariance (ANCOVA) with a factor for treatment group and a covariate for Baseline log PVR (macitentan vs. placebo). The treatment group difference (on log scale) and its 95% CLs are estimated based on the model. The geometric mean ratio (GMR; macitentan vs. placebo) and its 95% confidence interval are obtained by exponentiation. The null hypothesis is rejected if the entire 95% confidence interval is below one.
The treatment effect is expressed as (GMR-1)×100%, where a negative value indicates a reduction of PVR in the macitentan group as compared to the placebo group.

[2] = system: patients with PH post-LVAD implantation; assay: Phase 2 study in PH post-LVAD implantation: serum NT-proBNP; type: in vivo, human; details: 10 mg once daily
Experimental: as §1
A blood sample is drawn at Randomization (Visit 2) and EOT (Visit 5) for the analysis of serum NT-proBNP. See, Table 12 for serum NT-proBNP at Week 12 compared to baseline for the FAS.
NT-proBNP is summarized by time point and treatment group using descriptive statistics as well as geometric means and CVs. The ratio of Week 12 to Baseline NT-proBNP is summarized similarly. The ratio versus Baseline in NT-proBNP is log-transformed and analyzed using an ANCOVA with covariates for treatment group and Baseline log NT-proBNP.

[3] = 10 mg once daily, Week 12: Baseline, FAS, n 27
[4] = 10 mg once daily, post-hoc analysis
[5] = PVR calculated by programming, ES sensitivity analysis, 10 mg once daily, Week 12
[6] = PVR calculated by programming, PPS sensitivity analysis, 10 mg once daily, Week 12
[7] = PVR calculated by programming, primary analysis, FAS, 10 mg once daily, Week 12
[8] = PVR reported by INV, sensitivity analysis, FAS, 10 mg once daily, Week 12

CCCNS(=O)(=O)Nc1ncnc(OCCOc2ncc(Br)cn2)c1-c1ccc(Br)cc1 [Macitentan, propylsulfamic acid [5-(4-bromo-phenyl)-6-[2-(5-bromo-pyrimidin-2-yloxy)-ethoxy]-pyrimidin-4-yl]-amide]
DPG, Least squares mean change from baseline ([1]; 10 mg once daily, Day 84 or EOT, FAS, n 23): −6.0383 mmHg
TPG, Least squares mean change from baseline ([1]; 10 mg once daily, Day 84 or EOT, FAS, n 24): −7.6521 mmHg
Change in CI, Comparison to Placebo, Difference of least squares mean ([1]; 10 mg once daily, FAS): 0.1209 L/min/m^2
Change in CO, Comparison to Placebo, Difference of least squares mean ([1]; 10 mg once daily, FAS): 0.2064 L/min
Change in DPG, Comparison to Placebo, Difference of least squares mean ([1]; 10 mg once daily, FAS): −2.7136 mmHg
Change in PAWP, Comparison to Placebo, Difference of least squares mean ([1]; 10 mg once daily, FAS): 2.3514 mmHg
Change in SvO2, Comparison to Placebo, Difference of least squares mean ([1]; 10 mg once daily, FAS): 0.4285%
Change in TPG, Comparison to Placebo, Difference of least squares mean ([1]; 10 mg once daily, FAS): −2.7022 mmHg
Change in TPR, Comparison to Placebo, Difference of least squares mean ([1]; 10 mg once daily, FAS): −0.4422 mmHg min/L
mPAP (end-expiratory mean line), Comparison to Placebo, Difference of least squares mean ([1]; 10 mg once daily, FAS): −0.3052 mmHg
mRAP, Comparison to Placebo, Difference of least squares mean ([1]; 10 mg once daily, FAS): 2.1396 mmHg
DPG at Day 84 or EOT, mean (SD) ([1]; 10 mg once daily, FAS, n 23): 3.87 (5.619) mmHg
Change in CI at Day 84 or EOT compared to Baseline, Least squares mean ([1]; 10 mg once daily, FAS, n 24): 0.1284 L/min/m^2
Change in CO at Day 84 or EOT compared to Baseline, Least squares mean ([1]; 10 mg once daily, FAS, n 24): 0.3655 L/min
Change in PAWP at Day 84 or EOT compared to Baseline, Least squares mean ([1]; 10 mg once daily, FAS, n 24): 3.4038 mmHg
Change in SvO2 at Day 84 or EOT compared to Baseline, Least squares mean ([1]; 10 mg once daily, FAS, n 24): 4.7801%
Change in TPR at Day 84 or EOT compared to Baseline, Least squares mean ([1]; 10 mg once daily, FAS, n 24): −1.4175 mmHg min/L
PVR at Week 12/EOT, Mean (std) ([1]; 10 mg once daily, FAS, n 24): 2.555 (1.0607) WU
PVR at Week 12/EOT, Median ([1]; 10 mg once daily, FAS, n 24): 2.644 WU
TPG at Day 84 or EOT, mean (SD) ([1]; 10 mg once daily, FAS, n 24): 12.13 (4.902) mmHg
mPAP (end-expiratory mean line), change from baseline, Least squares mean ([1]; 10 mg once daily, FAS, n 24): −4.2251 mmHg
mRAP, change from baseline, Least squares mean ([1]; 10 mg once daily, FAS, n 24): 0.6222 mmHg
Change in mPAP at Day 84 or EOT compared to Baseline, Least squares mean ([1]; 10 mg once daily, FAS, n 24, second mPAP section of Table 11): −4.8854 mmHg
Change in TPG, Comparison to Placebo, Difference of least squares mean ([1]; 10 mg once daily, FAS, listed as macitentan): −2.7 mmHg
Change in mPAP, Comparison to Placebo, Difference of least squares mean ([1]; 10 mg once daily, FAS, second mPAP section of Table 11): −1.3035 mmHg
reduction in PVR for macitentan vs placebo ([1]; 10 mg once daily, Week 12): 26%
PVR Ratio to Baseline, Mean (std) [1, 3]: 0.585 (0.2280)
PVR Ratio to Baseline, Median [1, 3]: 0.573
patients with postbaseline PVR<3 WU, number [1, 4]: 16
patients with postbaseline PVR<3 WU, percent [1, 4]: 66.7%
PVR (Geometric mean ratio − 1) × 100% [1, 5]: −26.3%
PVR Geometric Mean Ratio, comparison to placebo [1, 5]: 0.7371
PVR (Geometric mean ratio − 1) × 100% [1, 6]: −37.6%
PVR Geometric Mean Ratio, comparison to placebo [1, 6]: 0.6236
PVR (Geometric mean ratio − 1) × 100% [1, 7]: −26.1%
PVR Geometric Mean Ratio, comparison to placebo [1, 7]: 0.7393
PVR Geometric Mean Ratio, comparison to placebo ([1]; PVR calculated by programming, primary analysis, FAS, 10 mg once daily, Week 12, listed as macitentan): 0.74
PVR (Geometric mean ratio − 1) × 100% [1, 8]: −26.1%
PVR Geometric Mean Ratio, comparison to placebo [1, 8]: 0.7386
effect on PVR in words ([1]; early post-LVAD population): significantly reduced PVR
LV filling in words ([1]; from PAWP and CO data): improved LV filling
proportion with postbaseline PVR<3 WU ([1]; patients with baseline PVR<4 WU, n=10): 90.0%
proportion with postbaseline PVR<3 WU ([1]; patients with baseline PVR>4 WU, n=14): 50.0%
NT-proBNP at Week 12/EOT, Mean (std) ([2]; FAS, n 22): 2435.4 (2620.75) ng/L
NT-proBNP at Week 12/EOT, Median ([2]; FAS, n 22): 1098.0 ng/L
NT-proBNP (Geometric mean ratio − 1) × 100% ([2]; Week 12, FAS): 10.9%
NT-proBNP, Comparison to Placebo, Geometric Mean Ratio ([2]; Week 12, FAS): 1.1086
NT-proBNP Ratio to Baseline, Mean (std) ([2]; Week 12: Baseline, FAS, n 22): 0.8 (0.57)
NT-proBNP Ratio to Baseline, Median ([2]; Week 12: Baseline, FAS, n 22): 0.6
